# Source: ChEMBL document CHEMBL1156829 (Proc Natl Acad Sci U S A, 2008)
# Where a name gives a salt, the structure may show the parent alone.
# Assays:
# [1] = system: Plasmodium falciparum; test: NOVARTIS: Inhibition of Plasmodium falciparum 3D7 (drug-susceptible) proliferation in erythrocyte-based infection assay; format: functional, organism-based; settings: Plasmodium falciparum, 3D7
# [2] = system: Plasmodium falciparum; test: NOVARTIS: Inhibition of Plasmodium falciparum W2 (drug-resistant) proliferation in erythrocyte-based infection assay; format: functional, organism-based; settings: Plasmodium falciparum, W2; read-out: EC50
# [3] = NOVARTIS: Cytotoxicity against human hepatocellular carcinoma cell line (Huh7); format: toxicity, cell-based, Huh-7; settings: Huh7 cells (hepatocellular carcinoma cell line)
SMILES,EC50 [1] [nM],EC50 [2] [nM],CC50 [3] [nM]
COc1ccc(C(NC(=O)c2cccnc2)c2cc(Cl)c3cccnc3c2O)cc1 (stereo not drawn),945,528,> 100000
COC(=O)c1c(OCc2ccc(F)cc2)cc(=O)n2c1CCN(Cc1ccccc1)CC2,3940,538,> 100000
CCN(CC)CCCC(C)Nc1cc(/C=C/c2ccc([N+](=O)[O-])cc2)nc2ccc(OC)cc12 (stereo not drawn),743,1300,> 6250
CCCCCC(=O)N1c2ccccc2N=C2CC(c3ccc(OC)c(OC)c3)CC(O)=C2C1c1ccc(C(F)(F)F)cc1 (stereo not drawn),107,47,> 100000
CC(C)(c1ccc(Oc2ccc(NC(=O)c3ccccc3)cc2)cc1)c1cccc(Oc2ccc(NC(=O)c3ccccc3)cc2)c1,1560,1770,> 10000
CCOC(=O)C1=C(C)NC2=C(C(=O)CC(C)(C)C2)C1c1ccc(Cl)cc1Cl (stereo not drawn),281,121,66000
C=C[C@H]1CN2CC[C@H]1C[C@H]2[C@H](OC(=O)c1cccc([N+](=O)[O-])c1)c1ccnc2ccccc12,396,< 14.5,> 10000
Cc1cc(Nc2ccc(Cl)c(Cl)c2)n2ncnc2n1,1680,674,> 100000
COc1ccc(N2C(=O)c3cccnc3C2=O)cc1,1980,665,> 10000
Cc1c(C(=O)N2CCN(c3ccc([N+](=O)[O-])cc3)CC2)sc2ncnc(N(C)c3ccccc3)c12,1650,> 1250,> 10000
CC(=O)N/C(=C\c1ccc(OC(F)F)cc1)C(=O)O,> 1170,432,> 10000
CCOc1ccc(C(=O)Cn2ccc(=NCc3ccccc3)cc2)cc1[N+](=O)[O-],69.7,121,20100
O=C(Nc1ccc(C(c2ccccc2)(c2ccccc2)c2ccc(NC(=O)c3cccc([N+](=O)[O-])c3)cc2)cc1)c1cccc([N+](=O)[O-])c1,> 1250,1680,> 10000
CCN(CC)CCN(Cc1cc2c(C)cc(C)cc2[nH]c1=O)C(=S)NCCCN(C)C,1850,723,> 76300
O=C(O)c1cc([N+](=O)[O-])ccc1Oc1cncc(Cl)c1,33.3,> 1250,> 10000
CC1(C)Cc2c(oc3ncn(CCn4cnc5oc6c(c5c4=N)CC(C)(C)SC6)c(=N)c23)CS1,> 12500,9740,> 100000
COCOc1ccc(-c2nc(-c3ccncc3)cnc2N)cc1,1430,> 1440,> 10000
CCn1ccnc1CC1COc2ccccc2O1 (stereo not drawn) [IMILOXAN HYDROCHLORIDE],> 1040,443,> 10000
CCc1c(C)nc(SCC(=O)NNC(C)=O)nc1O,> 1250,> 1030,> 10000
CCn1c(CSc2nc(C)cc(C)n2)nnc1SCC(N)=O,> 1250,26.7,> 10000
CCC(O)CN(c1ccccc1)c1ccccc1 (stereo not drawn),> 1250,> 1020,> 10000
O=C1C2C(C(=O)N1c1ccc(Br)cc1)C1C=CC2C12CC2 (stereo not drawn),> 12500,3980,> 100000

SMILES,EC50 [1] [nM],EC50 [2] [nM],CC50 [3] [nM]
CN[C@H]1C[C@@H]2O[C@](C)([C@H]1O)n1c3ccccc3c3c4c(c5c6ccccc6n2c5c31)C(=O)NC4,55.4,52.1,32.3
Cc1ccc(NC(c2ccccc2)(c2ccccc2)c2ccccc2)cc1C,439,207,> 100000
Clc1cccc(-c2cn3ccnc3c(N3CCN(c4ccncc4)CC3)n2)c1,> 1250,> 52.6,> 10000
COc1ccc(NC(=O)CCCCCn2c(SCC(=O)NCC3CCCO3)nc3ccsc3c2=O)cc1 (stereo not drawn),> 725,> 1320,> 10000
Cc1ccc(C2CC3=Nc4ccccc4N(C(=O)C(F)(F)F)C(c4ccc(OCc5ccccc5)cc4)C3=C(O)C2)cc1 (stereo not drawn),1660,1560,> 100000
OC(CN1CCN(c2ccnc3cc(Cl)ccc23)CC1)CN1CCN(c2ccnc3cc(Cl)ccc23)CC1,85.6,29.6,> 10000
COc1ccc(C2CC(=O)C3=C(C2)NC(C)=C(C(=O)OC2CCCC2)C3c2ccccc2F)cc1OC (stereo not drawn),40.4,12,14900
O=C(NNc1c2ccccc2nc2ccccc12)Nc1ccccc1,873,756,> 10000
CS(=O)(=O)N(CCc1ccccc1)CC(O)CN1CCC(CNC(=O)NC(c2ccccc2)c2ccccc2)CC1 (stereo not drawn),> 1530,1020,> 10000
CN1CCN(c2ccc(Nc3c4ccccc4nc4ccccc34)cc2)CC1,56.7,95.5,6760
Clc1ccccc1CN1CCc2nc(N3CCCCC3)sc2C1,594,2630,> 100000
O=C(Cn1c(=O)oc2cc(S(=O)(=O)N3CCCC3)ccc21)Nc1cccnc1,> 951,169,> 10000
COC(=O)C1=C(C)NC2=C(C(=O)CC(c3ccccc3Cl)C2)C1c1ccc(OC)c(OC)c1 (stereo not drawn),1290,478,> 100000
OCCc1cn(-c2ccccc2)c2ccccc12,717,226,> 10000
CCOC(=O)C1=C(C)N=c2sc(=Cc3cccc(OCc4cccc5ccccc45)c3)c(=O)n2C1c1ccc(OC)cc1OC (stereo not drawn),> 12500,> 9270,> 100000
CC(C)CN1CCC(O)(c2ccc3oc(C(=O)Nc4ccc5c(c4)OCO5)cc3c2)CC1,1080,363,55200
CN1C=CC=CC1=CC=C1C=Nc2ccccc21,236,232,20900
CN(c1ccccc1)S(=O)(=O)c1ccc(C(=O)Nc2ccc(-c3nc4ccccc4[nH]3)cc2)cc1,788,1040,42800
O=C1c2ccccc2-c2nnc(-c3ccc(Br)cc3)cc21,> 2500,1890,> 100000
Cc1ccc2[nH]c3c(NCCN4CCCC4)ncnc3c2c1,514,737,46500
Cc1ccc(C)c(N2CCN(CCCNC(=O)c3ccc(CSc4nc5cnccc5[nH]4)cc3)CC2)c1,644,190,23000
COc1ccc(C(=O)N2c3cc(C)ccc3C(Nc3ccc(C)cc3)CC2C)cc1 (stereo not drawn),> 12500,2620,> 100000

SMILES,EC50 [1] [nM],EC50 [2] [nM],CC50 [3] [nM]
Cc1cc(N2CCC(N(C)C3CCCC3)CC2)nc2cc(O)ccc12,312,1290,25500
CN(C)CCNC(=O)COc1ccc(-c2nc3ccccc3s2)cc1CN(C)C,622,557,> 10000
COc1ccc(C2C(C(=O)O)c3ccccc3C(=O)N2c2ccc(C)cc2)cc1OC (stereo not drawn),> 1080,> 1250,> 10000
COc1ccc(N(CC(=O)NCCc2ccc(F)cc2)S(=O)(=O)c2ccccc2)cc1,> 12500,5620,> 100000
O=C(Nc1ccc(N2CCCCC2)cc1)N1CCc2nc[nH]c2C1,> 1250,1010,> 6670
COc1ccc(OC)c(C2CC(=O)C3=C(C2)NC(=O)CC3c2ccc([N+](=O)[O-])cc2)c1 (stereo not drawn),262,229,72200
CC(C)CNC(=O)c1cnc(NCCCN)nc1NC1CCCC1,635,26.7,> 10000
O=C(NCCc1ccccc1)c1cnc(NCCCn2ccnc2)nc1NC1CCCC1,678,1720,> 8690
COC(OC)C(C)=NNC(N)=S,8.92,3.62,> 100000
Fc1ccc(-c2c[n+](Cc3ccc(Cl)cc3)c3n2CCC3)cc1,1140,370,> 100000
O=C(NCc1ccccc1)c1cnc(NCCCn2ccnc2)nc1NC1CCCC1,624,1320,> 10000
O=c1c(-c2ccc(Cl)cc2Cl)c(C(F)(F)F)oc2c(CN3CCCCC3)c(O)ccc12,994,198,> 100000
CCCC[C@@H](C)[C@@H](O)[C@H]1C(=O)N[C@@H](C(C)C)C(=O)N(C)[C@H](SC)C(=O)N(C)[C@@H](CC(C)C)C(=O)N[C@@H](C(C)C)C(=O)N(C)[C@@H](CC(C)C)C(=O)N[C@@H](C)C(=O)N[C@H](C)C(=O)N(C)[C@@H](CC(C)C)C(=O)N(C)[C@@H](CC(C)C)C(=O)N(C)[C@@H](C(C)C)C(=O)N1C,32.5,51.7,5180
COc1ccc2nc3cc(Cl)ccc3c(Nc3ccc(O)cc3)c2c1,809,845,> 10000
COc1ccc(C2C(C(C)=O)=C(O)C(=O)N2CCCn2ccnc2)c(OC)c1 (stereo not drawn),4480,1110,> 100000
CCOC(=O)c1c(C)[nH]c2c1cc(O)c1ccccc12,98.6,126,> 10000
CC1CCC(C(C)(C)Oc2ccc(NC(=O)c3ccccc3)cc2)CC1 (stereo not drawn),3970,1170,42800
O=C(c1ccc([N+](=O)[O-])cc1)N1CCC(c2nc(O)c3nnn(Cc4c(F)cccc4Cl)c3n2)CC1,210,401,> 100000
O=C(O)c1cccc(NC(=O)c2ccc(N3C(=O)c4ccc(C(=O)Nc5cccc(C(=O)O)c5)cc4C3=O)cc2)c1,> 12500,1140,> 100000
CCSc1ccc2ccccc2[n+]1CC,179,227,> 100000
CC(Oc1ccc(Cl)cc1Cl)c1nc(-c2ccc(NC(=O)c3cccs3)cc2)no1 (stereo not drawn),429,631,25600
CCc1[nH]nc2c1C(Cc1ccccc1)C(C#N)=C(N)O2 (stereo not drawn),> 1250,393,> 10000
